In publication PMC12152945, “Computational Design of Lysine Targeting Covalent Binders Using Rosetta” (Journal of Chemical Information and Modeling, 2025):

Key:
MKK7 = target: T1, MKK7 (Homo sapiens, UniProt O14733); assay: radiometric […] kinase assay ([…]PanQinase); format: biochemical; details: 3 μM ATP, 75.6 nM MKK7, JNK1 K55R K56R substrate; 3 mM MgCl2, 3 mM MnCl2, pH 7.5, 30 °C; 30 min preincubation; reversible covalent (imine, Lys221)
T1 construct: gene MAP2K7; GST or His-tagged kinase from Reaction Biology (33PanQinase assay)
T1 sequence (O14733 2-419): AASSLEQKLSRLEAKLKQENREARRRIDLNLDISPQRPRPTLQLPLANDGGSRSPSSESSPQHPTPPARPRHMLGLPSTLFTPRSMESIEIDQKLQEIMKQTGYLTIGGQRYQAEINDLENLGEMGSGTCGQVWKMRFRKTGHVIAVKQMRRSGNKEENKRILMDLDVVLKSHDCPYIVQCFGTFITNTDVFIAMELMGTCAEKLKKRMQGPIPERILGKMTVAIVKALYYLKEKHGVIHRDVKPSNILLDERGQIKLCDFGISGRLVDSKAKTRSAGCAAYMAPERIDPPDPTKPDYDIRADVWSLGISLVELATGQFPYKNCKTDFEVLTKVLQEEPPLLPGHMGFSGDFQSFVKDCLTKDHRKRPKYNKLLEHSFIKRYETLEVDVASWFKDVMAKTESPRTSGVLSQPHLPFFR

MKK7 kinase domain = target: T2, MKK7 kinase domain (Homo sapiens, UniProt O14733); assay: intact protein LC/MS; format: binding; details: covalent, reversible imine trapped with 5 mM NaBH4; 2 μM protein, HEPES pH 7.5, overnight 4 °C
T2 construct: gene MAP2K7; His-tagged kinase domain for intact-protein LC/MS
T2 sequence (O14733 117-419 limits assumed): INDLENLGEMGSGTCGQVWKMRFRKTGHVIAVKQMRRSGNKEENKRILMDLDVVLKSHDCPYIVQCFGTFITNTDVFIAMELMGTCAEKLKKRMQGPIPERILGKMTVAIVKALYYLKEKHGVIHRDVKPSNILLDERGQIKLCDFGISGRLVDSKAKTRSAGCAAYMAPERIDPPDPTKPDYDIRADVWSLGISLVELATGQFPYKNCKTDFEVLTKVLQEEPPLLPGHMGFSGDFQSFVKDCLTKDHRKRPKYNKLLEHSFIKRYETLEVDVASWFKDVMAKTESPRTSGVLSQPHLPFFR

IC50 (MKK7): 0.738 µM
SMILES: O=Cc1ccc(-c2n[nH]c3ccccc23)cc1O [compound 1]
intact protein LC/MS (MKK7 kinase domain): Significant labeling was detected only after the reduction of the complex
